Assay results taken from patent EP0968222B1, “NOVEL ERYTHROMYCIN DERIVATIVES, METHOD OF PREPARATION AND APPLICATION AS MEDICINES” (Aventis Pharma S.A., priority 1997, dated 1998).
Values after ≈ are worked out from the molar mass of the structure shown.

Columns and labels:
Test in all cases: Liquid medium dilution method (MIC)
Type in all cases: cell-based
[1] = system: Staphylococcus aureus 011UC4; settings: 24 h incubation at 37°C, read-out: concentrations minimales inhibitrices (C.M.I.)
Description: (§1) Méthode des dilutions en milieu liquide
(§2) On prépare une série de tubes dans lesquels on répartit une même quantité de milieu nutritif stérile. On distribue dans chaque tube des quantités croissantes du produit à étudier, puis chaque tube est ensemencé avec une souche bactérienne. Après incubation de vingt-quatre heures à l'étuve à 37°C, l'inhibition de la croissance est appréciée par transillumination, ce qui permet de déterminer les concentrations minimales inhibitrices (C.M.I.) exprimées en microgrammes/cm^3.

[2] = system: Streptococcus agalactiae groupe B 02B1HT1; settings: 24 h incubation at 37°C, read-out: concentrations minimales inhibitrices (C.M.I.)
Description: as §1, §2

[3] = system: Streptococcus agalactiae groupe B 02B1SJ1; settings: 24 h incubation at 37°C, read-out: concentrations minimales inhibitrices (C.M.I.)
Description: as §1, §2

[4] = system: Streptococcus faecalis groupe D 02D2UC1; settings: Enterococcus faecalis, 24 h incubation at 37°C, read-out: concentrations minimales inhibitrices (C.M.I.)
Description: as §1, §2

[5] = system: Streptococcus faecium groupe D 02D3HT1; settings: Enterococcus faecium, 24 h incubation at 37°C, read-out: concentrations minimales inhibitrices (C.M.I.)
Description: as §1, §2

[6] = system: Streptococcus mitis 02mitCB1; settings: 24 h incubation at 37°C, read-out: concentrations minimales inhibitrices (C.M.I.)
Description: as §1, §2

[7] = system: Streptococcus pneumoniae 030GR20; settings: 24 h incubation at 37°C, read-out: concentrations minimales inhibitrices (C.M.I.)
Description: as §1, §2

[8] = system: Streptococcus pneumoniae 030PW23c; settings: 24 h incubation at 37°C, read-out: concentrations minimales inhibitrices (C.M.I.)
Description: as §1, §2

[9] = system: Streptococcus pneumoniae 030RO1i; settings: 24 h incubation at 37°C, read-out: concentrations minimales inhibitrices (C.M.I.)
Description: as §1, §2

[10] = system: Streptococcus pneumoniae 030SJ1c; settings: 24 h incubation at 37°C, read-out: concentrations minimales inhibitrices (C.M.I.)
Description: as §1, §2

[11] = system: Streptococcus pneumoniae 032UC1; settings: 24 h incubation at 37°C, read-out: concentrations minimales inhibitrices (C.M.I.)
Description: as §1, §2

[12] = system: Streptococcus pyogenes groupe A 02A1UC1; settings: 24 h incubation at 37°C, read-out: concentrations minimales inhibitrices (C.M.I.)
Description: as §1, §2

Streptococcus sanguis = settings: 24 h incubation at 37°C, read-out: concentrations minimales inhibitrices (C.M.I.)
Description: as §1, §2

MIC [1]: 0.3 µg/mL (≈ 0.335 µM)
MIC [2]: 0.08 µg/mL (≈ 0.0894 µM)
MIC [3]: 0.08 µg/mL (≈ 0.0894 µM)
MIC [4]: 0.08 µg/mL (≈ 0.0894 µM)
MIC [5]: 0.08 µg/mL (≈ 0.0894 µM)
MIC [6]: 0.04 µg/mL (≈ 0.0447 µM)
MIC [7]: 0.04 µg/mL (≈ 0.0447 µM)
MIC [8]: 0.08 µg/mL (≈ 0.0894 µM)
MIC [9]: 0.08 µg/mL (≈ 0.0894 µM)
MIC [10]: 0.15 µg/mL (≈ 0.168 µM)
MIC [11]: ≤ 0.02 µg/mL
MIC [12]: 0.08 µg/mL (≈ 0.0894 µM)
MIC (Streptococcus sanguis): 0.08 µg/mL (≈ 0.0894 µM)
Structure (SMILES): CC[C@H]1OC(=O)[C@H](C)C(=O)[C@H](C)[C@@H](O[C@@H]2O[C@H](C)C[C@H](N(C)C)[C@H]2O)[C@](C)(OC)C[C@@H](C)/C(=N\OC2CCCNC2)[C@H](C)[C@H]2N(NCCCc3ccnc4ccccc34)C(=O)O[C@]12C (stereo partly shown) [Exemple 3]
